Measured values taken from patent publication US9845313B2, “Cycloalkane derivatives” (Daiichi Sankyo Company, Limited, priority 2012, dated 2017).

Tests used:
[1] = molecular target: hNav1.7 (Homo sapiens (Human), UniProt Q15858); test: Electrophysiological evaluation, automated patch clamp IonWorks Quattro, hNav 1.7/β1/β2 HEK293A cells; type: cell-based; details: response caused by the second depolarization pulse (pre-pulse potential set to V1/2); HEK293A hNav 1.7/β1/β2 cells; Population Patch Clamp
[2] = test system: patients of painful diabetic neuropathy; details: cited from earlier work

hNav1.7, sequence (Q15858 whole entry): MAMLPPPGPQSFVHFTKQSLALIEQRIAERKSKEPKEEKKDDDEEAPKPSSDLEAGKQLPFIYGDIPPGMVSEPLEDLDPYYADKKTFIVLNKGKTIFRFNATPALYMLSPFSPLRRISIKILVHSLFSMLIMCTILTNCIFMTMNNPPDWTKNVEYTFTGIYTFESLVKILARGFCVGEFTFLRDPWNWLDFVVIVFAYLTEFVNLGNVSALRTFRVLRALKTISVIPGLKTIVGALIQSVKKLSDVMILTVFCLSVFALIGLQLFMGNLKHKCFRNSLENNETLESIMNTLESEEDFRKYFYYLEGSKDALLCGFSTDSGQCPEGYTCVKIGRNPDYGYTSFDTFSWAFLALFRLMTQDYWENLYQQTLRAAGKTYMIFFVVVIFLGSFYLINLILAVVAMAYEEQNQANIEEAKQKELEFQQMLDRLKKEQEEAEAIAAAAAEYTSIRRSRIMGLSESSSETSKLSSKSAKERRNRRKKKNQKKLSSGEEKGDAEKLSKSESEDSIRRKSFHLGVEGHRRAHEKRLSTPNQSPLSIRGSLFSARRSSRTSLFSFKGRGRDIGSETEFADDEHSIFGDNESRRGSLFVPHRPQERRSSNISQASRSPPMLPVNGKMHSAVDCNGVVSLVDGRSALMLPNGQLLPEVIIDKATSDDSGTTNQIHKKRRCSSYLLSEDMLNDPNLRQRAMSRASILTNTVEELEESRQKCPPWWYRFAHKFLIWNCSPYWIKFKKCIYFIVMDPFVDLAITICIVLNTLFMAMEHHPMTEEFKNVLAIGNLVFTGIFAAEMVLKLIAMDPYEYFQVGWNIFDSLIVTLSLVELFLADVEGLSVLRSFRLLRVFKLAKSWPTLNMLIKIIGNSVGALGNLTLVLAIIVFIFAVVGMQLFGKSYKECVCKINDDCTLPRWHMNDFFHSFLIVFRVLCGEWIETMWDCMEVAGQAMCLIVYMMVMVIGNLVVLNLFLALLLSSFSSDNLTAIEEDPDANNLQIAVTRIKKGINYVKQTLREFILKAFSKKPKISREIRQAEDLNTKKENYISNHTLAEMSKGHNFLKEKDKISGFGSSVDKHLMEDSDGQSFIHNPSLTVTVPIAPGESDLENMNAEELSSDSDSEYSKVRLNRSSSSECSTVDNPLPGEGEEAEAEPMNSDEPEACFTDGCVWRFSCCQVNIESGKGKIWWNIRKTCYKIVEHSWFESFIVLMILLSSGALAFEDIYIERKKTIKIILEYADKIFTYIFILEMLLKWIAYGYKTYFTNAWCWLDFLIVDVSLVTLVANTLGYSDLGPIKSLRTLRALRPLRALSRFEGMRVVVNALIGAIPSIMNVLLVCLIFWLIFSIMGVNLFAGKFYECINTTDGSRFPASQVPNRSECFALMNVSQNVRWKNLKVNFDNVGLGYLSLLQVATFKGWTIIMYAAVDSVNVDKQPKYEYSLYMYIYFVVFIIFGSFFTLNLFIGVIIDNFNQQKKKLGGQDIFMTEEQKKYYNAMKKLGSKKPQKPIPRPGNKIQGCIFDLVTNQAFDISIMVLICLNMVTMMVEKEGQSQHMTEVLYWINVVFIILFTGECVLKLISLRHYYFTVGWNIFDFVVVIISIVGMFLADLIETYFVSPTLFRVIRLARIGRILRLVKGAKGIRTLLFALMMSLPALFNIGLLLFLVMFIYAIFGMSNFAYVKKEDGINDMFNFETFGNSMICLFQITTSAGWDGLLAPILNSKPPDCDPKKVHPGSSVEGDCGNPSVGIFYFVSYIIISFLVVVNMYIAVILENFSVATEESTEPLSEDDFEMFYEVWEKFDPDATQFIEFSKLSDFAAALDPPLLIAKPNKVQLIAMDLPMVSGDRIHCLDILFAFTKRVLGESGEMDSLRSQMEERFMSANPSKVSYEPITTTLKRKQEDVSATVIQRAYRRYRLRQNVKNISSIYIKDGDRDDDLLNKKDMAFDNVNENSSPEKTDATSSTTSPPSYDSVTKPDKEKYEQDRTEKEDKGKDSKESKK
hNav1.7, sequence (Q07699 19-218 partner): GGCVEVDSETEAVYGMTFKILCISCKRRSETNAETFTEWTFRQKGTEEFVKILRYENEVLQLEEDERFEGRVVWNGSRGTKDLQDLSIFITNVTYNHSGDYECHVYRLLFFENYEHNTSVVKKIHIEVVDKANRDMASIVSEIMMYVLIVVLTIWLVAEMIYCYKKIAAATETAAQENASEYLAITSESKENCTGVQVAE
hNav1.7, sequence (O60939 30-215 partner): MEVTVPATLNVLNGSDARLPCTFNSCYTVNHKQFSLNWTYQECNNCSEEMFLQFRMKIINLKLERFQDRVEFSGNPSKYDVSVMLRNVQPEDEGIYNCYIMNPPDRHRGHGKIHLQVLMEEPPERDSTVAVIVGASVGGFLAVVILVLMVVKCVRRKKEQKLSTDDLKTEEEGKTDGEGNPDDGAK

O=S(=O)(Nc1ncns1)c1cc(F)c(O[C@@H]2CCCC[C@@H]2c2ccccc2)cc1F (relative stereo) [Example 3, 2,5-Difluoro-4-{[(1R*,2R*)-2-phenylcyclohexyl]oxy}-N-(1,2,4-thiadiazol-5-yl)benzenesulfonamide]
IC50 [1]: 0.27 µM

CC(C)C[C@H](CN)CC(=O)O [pregabalin]
effective therapeutic ratio based on self-evaluation of patients [2]: approximately 50%
